From ChEMBL document CHEMBL3603736, “3-Substituted pyrazoles and 4-substituted triazoles as inhibitors of human 15-lipoxygenase-1” (Bioorg Med Chem Lett, 2015)
In brackets after ≈: the same amount, converted by molar mass.

Columns and labels:
[1] = biological target: T1, Polyunsaturated fatty acid lipoxygenase ALOX15 (Homo sapiens, UniProt P16050)
T1 sequence (P16050 whole entry): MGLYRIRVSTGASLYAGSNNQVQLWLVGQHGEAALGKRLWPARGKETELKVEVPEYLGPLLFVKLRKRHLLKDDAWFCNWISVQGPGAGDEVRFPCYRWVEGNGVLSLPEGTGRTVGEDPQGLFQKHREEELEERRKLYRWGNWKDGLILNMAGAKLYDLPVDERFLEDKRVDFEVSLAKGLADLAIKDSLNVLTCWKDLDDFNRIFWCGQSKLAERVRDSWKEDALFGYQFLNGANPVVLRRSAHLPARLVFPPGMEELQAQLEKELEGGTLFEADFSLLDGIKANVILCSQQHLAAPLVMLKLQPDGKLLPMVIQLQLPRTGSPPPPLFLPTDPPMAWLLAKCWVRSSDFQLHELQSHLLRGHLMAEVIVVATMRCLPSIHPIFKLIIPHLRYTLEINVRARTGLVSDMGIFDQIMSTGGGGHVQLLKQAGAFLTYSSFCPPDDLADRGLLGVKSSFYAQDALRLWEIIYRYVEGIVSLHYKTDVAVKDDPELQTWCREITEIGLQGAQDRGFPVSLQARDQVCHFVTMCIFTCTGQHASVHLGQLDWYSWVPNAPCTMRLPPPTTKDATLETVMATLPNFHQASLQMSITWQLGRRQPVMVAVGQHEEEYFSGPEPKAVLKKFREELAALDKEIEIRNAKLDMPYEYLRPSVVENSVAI
Description: (§2) Inhibition of 15-LOX-1 in human L1236 cells assessed as reduction in conversion of arachidonic acid to 15-HETE pre-incubated 5 min before arachidonic acid substrate addition by HPLC-UV spectroscopy

[2] = biological target: T1, Polyunsaturated fatty acid lipoxygenase ALOX15; remark: listed apart in the source
Description: (§3) Inhibition of human 15-LOX-1 expressed in Sf9 cells assessed as reduction in conversion of arachidonic acid to 15-HETE pre-incubated 5 min before arachidonic acid substrate addition by HPLC-UV spectroscopy

[3] = biological target: T1, Polyunsaturated fatty acid lipoxygenase ALOX15; details: sf9
Description: as §3

[4] = biological target: T1, Polyunsaturated fatty acid lipoxygenase ALOX15; details: l1236
Description: as §2

Cytochrome P450 2C8 [5] = biological target: T2, Cytochrome P450 2C8 (Homo sapiens, UniProt P10632); experiment: Inhibition of human CYP2C8 at 10 uM; assay type: ADME
[6] = biological target: T3, Prostaglandin G/H synthase 2 (Homo sapiens) (UniProt P35354); experiment: Inhibition of human recombinant COX2 assessed as reduction in PGH2-derived PGF2alpha production at 10 uM by enzyme immunoassay
T3 sequence (whole entry): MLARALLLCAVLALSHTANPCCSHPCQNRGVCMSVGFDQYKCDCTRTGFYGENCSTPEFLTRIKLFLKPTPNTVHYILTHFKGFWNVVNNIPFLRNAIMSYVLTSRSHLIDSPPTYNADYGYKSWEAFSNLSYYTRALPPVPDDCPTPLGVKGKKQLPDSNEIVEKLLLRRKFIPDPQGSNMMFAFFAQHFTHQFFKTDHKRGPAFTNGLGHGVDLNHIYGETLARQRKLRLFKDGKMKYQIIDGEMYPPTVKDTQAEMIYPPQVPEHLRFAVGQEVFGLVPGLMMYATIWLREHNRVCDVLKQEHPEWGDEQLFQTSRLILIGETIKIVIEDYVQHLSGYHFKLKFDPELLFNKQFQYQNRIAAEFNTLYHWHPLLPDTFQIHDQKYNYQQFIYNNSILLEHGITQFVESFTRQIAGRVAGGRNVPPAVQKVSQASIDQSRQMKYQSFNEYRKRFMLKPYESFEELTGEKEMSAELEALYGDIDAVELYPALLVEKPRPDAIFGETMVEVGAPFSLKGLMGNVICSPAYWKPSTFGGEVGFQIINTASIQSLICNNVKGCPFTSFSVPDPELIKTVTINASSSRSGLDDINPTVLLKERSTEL

[7] = Intrinsic clearance in human microsomes; assay type: ADME, Microsome
[8] = biological target: Polyunsaturated fatty acid lipoxygenase ALOX15B (Homo sapiens, UniProt O15296); experiment: Inhibition of human 15-LOX-2 expressed in Sf9 cells assessed as reduction in conversion of arachidonic acid to 15-HETE pre-incubated 5 min before arachidonic acid substrate addition by HPLC-UV spectroscopy
Cytochrome P450 2C19 = Cytochrome P450 2C19 (Homo sapiens, UniProt P33261); experiment: Inhibition of human CYP2C19; assay type: ADME; details: read-out: IC50
[9] = Half life in human microsomes; assay type: ADME, Microsome
CYP2E1 = CYP2E1 (Homo sapiens, UniProt P05181); experiment: Inhibition of human CYP2E1 at 10 uM; assay type: ADME
[10] = biological target: Polyunsaturated fatty acid 5-lipoxygenase (Homo sapiens) (UniProt P09917); experiment: Inhibition of 5-LOX in calcium ionophore and arachidonic acid-stimulated purified human granulocytes assessed as reduction in LTB4 formation at 10 uM by HPLC-UV spectroscopy
Cytochrome P450 2C9 = Cytochrome P450 2C9 (Homo sapiens, UniProt P11712); experiment: Inhibition of human CYP2C9; assay type: ADME; details: read-out: IC50
[11] = biological target: Polyunsaturated fatty acid lipoxygenase ALOX12 (Homo sapiens) (UniProt P18054); experiment: Inhibition of human platelet 12-LOX assessed as reduction in conversion of arachidonic acid to […] at 10 uM pre-incubated 5 min before arachidonic acid substrate addition by HPLC-UV spectroscopy
[12] = Aqueous solubility in pH 10 buffer; assay type: physicochemical
Cytochrome P450 2C8 [13] = biological target: T2, Cytochrome P450 2C8; experiment: Inhibition of human CYP2C8; assay type: ADME
[14] = Aqueous solubility in pH 7.4 buffer; assay type: physicochemical
[15] = biological target: Arachidonate 12-lipoxygenase (Rattus norvegicus) (UniProt Q02759); experiment: (§1) Inhibition of rat 15-LOX-1 expressed in Sf9 cells assessed as reduction in conversion of arachidonic acid to 15-HETE pre-incubated 5 min before arachidonic acid substrate addition by HPLC-UV spectroscopy
[16] = biological target: Arachidonate 12-lipoxygenase (Rattus norvegicus, UniProt Q02759); experiment: as §1
Cytochrome P450 1A2 = Cytochrome P450 1A2 (Homo sapiens, UniProt P05177); experiment: Inhibition of human CYP1A2; assay type: ADME
[17] = biological target: Arachidonate 12-lipoxygenase (Sus scrofa, UniProt P16469); experiment: Inhibition of pig 15-LOX-1 expressed in Sf9 cells assessed as reduction in conversion of arachidonic acid to 15-HETE pre-incubated 5 min before arachidonic acid substrate addition by HPLC-UV spectroscopy
Escherichia coli = experiment: Genotoxicity in Escherichia coli by SOS/umu test; assay type: toxicity, organism-based
[18] = Inhibition of dog 15-LOX-1 expressed in Sf9 cells assessed as reduction in conversion of arachidonic acid to 15-HETE pre-incubated 5 min before arachidonic acid substrate addition by HPLC-UV spectroscopy; design: species or system Canis lupus familiaris
[19] = biological target: T4, Prostaglandin G/H synthase 1 (Ovis aries) (UniProt P05979); experiment: Inhibition of ovine COX1 assessed as reduction in PGH2-derived PGF2alpha production at 10 uM by enzyme immunoassay
T4 sequence (whole entry): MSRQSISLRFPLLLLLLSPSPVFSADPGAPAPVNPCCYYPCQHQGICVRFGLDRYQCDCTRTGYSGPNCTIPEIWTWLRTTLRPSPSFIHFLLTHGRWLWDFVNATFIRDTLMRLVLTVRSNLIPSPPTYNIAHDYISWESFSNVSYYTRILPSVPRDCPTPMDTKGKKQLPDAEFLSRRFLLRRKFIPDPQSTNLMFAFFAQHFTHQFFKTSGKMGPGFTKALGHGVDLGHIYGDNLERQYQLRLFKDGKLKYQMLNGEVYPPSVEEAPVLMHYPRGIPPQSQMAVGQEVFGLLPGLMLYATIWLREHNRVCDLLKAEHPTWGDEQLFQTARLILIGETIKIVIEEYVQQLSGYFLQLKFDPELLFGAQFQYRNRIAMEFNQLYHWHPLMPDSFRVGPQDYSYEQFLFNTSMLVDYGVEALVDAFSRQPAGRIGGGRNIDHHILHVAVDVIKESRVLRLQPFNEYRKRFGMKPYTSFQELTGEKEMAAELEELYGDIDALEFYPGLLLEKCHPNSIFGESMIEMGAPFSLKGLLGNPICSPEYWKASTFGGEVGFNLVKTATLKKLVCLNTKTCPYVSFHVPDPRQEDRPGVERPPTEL

Cytochrome P450 2D6 = Cytochrome P450 2D6 (Homo sapiens, UniProt P10635); experiment: Inhibition of human CYP2D6; assay type: ADME
[20] = Aqueous solubility in pH 2.0 buffer; assay type: physicochemical
[21] = biological target: Voltage-gated inwardly rectifying potassium channel KCNH2 (Homo sapiens, UniProt Q12809); experiment: Inhibition of human ERG
[22] = Protein binding in plasma (unknown origin); assay type: ADME, cell-free; details: read-out: PPB (converted)
Caco-2 = experiment: Permeability in human Caco2 cells; assay type: ADME, cell-based
CYP2B6 = CYP2B6 (Homo sapiens, UniProt P20813); experiment: Inhibition of human CYP2B6 at 10 uM; assay type: ADME
Cytochrome P450 3A4 = Cytochrome P450 3A4 (Homo sapiens, UniProt P08684); experiment: Inhibition of human CYP3A4; assay type: ADME; details: read-out: IC50

T2 sequence (P10632 whole entry): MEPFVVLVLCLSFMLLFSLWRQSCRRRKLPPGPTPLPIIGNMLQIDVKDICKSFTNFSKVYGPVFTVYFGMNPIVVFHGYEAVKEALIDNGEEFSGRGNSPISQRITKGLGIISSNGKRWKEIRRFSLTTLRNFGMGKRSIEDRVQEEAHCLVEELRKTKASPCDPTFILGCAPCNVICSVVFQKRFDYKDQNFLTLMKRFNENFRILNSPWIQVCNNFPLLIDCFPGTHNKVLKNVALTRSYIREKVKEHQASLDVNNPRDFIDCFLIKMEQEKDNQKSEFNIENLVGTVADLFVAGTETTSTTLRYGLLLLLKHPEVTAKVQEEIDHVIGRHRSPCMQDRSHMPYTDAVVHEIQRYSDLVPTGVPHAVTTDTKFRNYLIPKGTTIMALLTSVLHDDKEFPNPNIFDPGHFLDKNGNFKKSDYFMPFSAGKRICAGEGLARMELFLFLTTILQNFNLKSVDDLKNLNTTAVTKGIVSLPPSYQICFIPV
Chain of Polyunsaturated fatty acid lipoxygenase ALOX12 (Homo sapiens) (P18054 whole entry): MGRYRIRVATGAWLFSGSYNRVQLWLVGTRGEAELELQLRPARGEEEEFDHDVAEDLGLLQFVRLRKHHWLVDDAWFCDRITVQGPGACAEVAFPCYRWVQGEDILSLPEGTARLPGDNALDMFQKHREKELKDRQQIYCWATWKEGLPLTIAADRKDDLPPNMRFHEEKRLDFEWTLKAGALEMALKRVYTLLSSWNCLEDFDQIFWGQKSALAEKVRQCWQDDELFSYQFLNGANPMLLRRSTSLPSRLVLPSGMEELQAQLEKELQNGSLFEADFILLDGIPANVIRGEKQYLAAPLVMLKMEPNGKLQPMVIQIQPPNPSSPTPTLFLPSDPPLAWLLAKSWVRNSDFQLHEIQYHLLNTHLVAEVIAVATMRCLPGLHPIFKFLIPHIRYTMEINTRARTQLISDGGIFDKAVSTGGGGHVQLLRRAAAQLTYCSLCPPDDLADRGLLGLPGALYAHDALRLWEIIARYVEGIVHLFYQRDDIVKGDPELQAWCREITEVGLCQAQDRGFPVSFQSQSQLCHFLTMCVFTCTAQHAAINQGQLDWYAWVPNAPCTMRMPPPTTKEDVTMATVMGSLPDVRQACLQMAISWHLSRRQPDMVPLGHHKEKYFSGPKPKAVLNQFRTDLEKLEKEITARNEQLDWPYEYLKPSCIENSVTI
Chain of Polyunsaturated fatty acid lipoxygenase ALOX15B (O15296 whole entry): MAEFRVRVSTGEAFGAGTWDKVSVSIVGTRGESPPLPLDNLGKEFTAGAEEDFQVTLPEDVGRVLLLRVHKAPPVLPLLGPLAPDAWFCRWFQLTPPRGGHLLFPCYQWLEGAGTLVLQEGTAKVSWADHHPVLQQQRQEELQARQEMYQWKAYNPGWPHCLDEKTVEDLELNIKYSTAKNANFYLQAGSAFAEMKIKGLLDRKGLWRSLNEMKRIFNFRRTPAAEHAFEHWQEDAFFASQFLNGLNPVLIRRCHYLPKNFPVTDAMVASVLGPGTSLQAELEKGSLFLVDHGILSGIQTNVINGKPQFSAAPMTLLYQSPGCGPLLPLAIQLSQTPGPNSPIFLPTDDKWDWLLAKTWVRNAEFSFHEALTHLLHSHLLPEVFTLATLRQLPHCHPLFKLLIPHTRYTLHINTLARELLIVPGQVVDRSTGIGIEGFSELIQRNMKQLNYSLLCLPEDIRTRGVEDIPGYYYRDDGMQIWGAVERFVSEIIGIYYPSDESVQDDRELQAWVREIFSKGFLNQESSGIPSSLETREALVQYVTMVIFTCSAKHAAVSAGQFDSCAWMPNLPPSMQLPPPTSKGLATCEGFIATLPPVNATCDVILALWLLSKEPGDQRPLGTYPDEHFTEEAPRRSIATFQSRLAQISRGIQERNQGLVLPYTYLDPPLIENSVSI
Chain of Polyunsaturated fatty acid 5-lipoxygenase (Homo sapiens) (P09917 whole entry): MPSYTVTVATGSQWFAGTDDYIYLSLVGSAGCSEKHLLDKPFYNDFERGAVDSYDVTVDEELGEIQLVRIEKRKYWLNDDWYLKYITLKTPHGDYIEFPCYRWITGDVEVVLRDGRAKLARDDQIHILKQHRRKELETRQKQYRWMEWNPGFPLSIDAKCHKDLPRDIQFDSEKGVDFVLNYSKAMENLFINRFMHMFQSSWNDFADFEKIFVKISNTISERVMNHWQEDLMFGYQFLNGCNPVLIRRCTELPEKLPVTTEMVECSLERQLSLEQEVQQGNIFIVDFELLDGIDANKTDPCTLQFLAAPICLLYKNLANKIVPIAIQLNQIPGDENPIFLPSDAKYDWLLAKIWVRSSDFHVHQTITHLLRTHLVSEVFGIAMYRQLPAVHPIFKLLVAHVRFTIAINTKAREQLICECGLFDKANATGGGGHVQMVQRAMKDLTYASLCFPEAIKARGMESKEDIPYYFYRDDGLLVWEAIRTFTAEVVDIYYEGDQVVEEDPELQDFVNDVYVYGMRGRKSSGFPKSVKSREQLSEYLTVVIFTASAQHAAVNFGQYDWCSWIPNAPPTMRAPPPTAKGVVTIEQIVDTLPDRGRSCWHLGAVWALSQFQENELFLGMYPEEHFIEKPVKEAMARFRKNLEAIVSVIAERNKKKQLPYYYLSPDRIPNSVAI
Chain of Cytochrome P450 2C9 (P11712 whole entry): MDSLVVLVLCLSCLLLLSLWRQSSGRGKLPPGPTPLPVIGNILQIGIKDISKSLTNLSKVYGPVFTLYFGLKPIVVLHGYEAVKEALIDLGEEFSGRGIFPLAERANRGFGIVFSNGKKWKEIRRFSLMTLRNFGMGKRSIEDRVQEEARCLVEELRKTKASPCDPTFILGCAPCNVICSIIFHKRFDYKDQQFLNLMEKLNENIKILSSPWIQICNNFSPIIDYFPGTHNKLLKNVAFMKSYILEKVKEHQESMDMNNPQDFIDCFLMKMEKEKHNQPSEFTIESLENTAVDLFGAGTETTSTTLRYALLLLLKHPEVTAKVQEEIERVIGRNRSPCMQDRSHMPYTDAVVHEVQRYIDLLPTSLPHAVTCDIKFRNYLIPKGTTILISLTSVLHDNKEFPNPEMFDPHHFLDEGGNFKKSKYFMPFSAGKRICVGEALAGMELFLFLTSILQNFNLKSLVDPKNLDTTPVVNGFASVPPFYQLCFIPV
Chain of Arachidonate 12-lipoxygenase (Sus scrofa, UniProt P16469) (P16469 whole entry): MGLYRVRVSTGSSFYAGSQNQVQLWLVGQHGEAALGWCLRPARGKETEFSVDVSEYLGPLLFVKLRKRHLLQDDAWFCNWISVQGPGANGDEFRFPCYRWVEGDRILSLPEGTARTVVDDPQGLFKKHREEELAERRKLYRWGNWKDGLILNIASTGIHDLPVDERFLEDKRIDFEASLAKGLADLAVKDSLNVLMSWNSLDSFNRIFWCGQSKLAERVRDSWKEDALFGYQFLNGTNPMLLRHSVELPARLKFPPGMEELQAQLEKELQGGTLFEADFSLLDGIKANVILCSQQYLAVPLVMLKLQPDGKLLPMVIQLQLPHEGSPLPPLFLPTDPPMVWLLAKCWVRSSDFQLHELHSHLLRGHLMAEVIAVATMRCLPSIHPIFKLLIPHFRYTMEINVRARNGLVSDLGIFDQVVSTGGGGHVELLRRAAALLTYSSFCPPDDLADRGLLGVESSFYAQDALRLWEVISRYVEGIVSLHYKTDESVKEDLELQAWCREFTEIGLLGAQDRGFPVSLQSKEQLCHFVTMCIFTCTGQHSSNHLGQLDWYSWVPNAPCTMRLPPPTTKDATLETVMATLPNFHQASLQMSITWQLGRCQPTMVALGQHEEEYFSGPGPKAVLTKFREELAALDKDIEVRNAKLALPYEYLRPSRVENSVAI
Chain of Cytochrome P450 1A2 (P05177 whole entry): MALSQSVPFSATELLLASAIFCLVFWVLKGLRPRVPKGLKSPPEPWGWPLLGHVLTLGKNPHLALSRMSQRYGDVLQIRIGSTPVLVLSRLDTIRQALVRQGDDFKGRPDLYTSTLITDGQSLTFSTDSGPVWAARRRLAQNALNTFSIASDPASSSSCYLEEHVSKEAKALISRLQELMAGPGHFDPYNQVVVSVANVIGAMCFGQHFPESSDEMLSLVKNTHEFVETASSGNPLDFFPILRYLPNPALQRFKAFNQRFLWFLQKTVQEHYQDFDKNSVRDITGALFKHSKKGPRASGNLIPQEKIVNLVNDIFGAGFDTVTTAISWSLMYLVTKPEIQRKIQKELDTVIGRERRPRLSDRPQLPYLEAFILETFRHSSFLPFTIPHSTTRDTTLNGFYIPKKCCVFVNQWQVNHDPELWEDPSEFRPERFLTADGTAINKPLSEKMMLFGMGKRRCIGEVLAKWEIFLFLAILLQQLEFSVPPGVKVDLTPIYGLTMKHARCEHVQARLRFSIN
Chain of Arachidonate 12-lipoxygenase (Rattus norvegicus, UniProt Q02759) (Q02759 whole entry): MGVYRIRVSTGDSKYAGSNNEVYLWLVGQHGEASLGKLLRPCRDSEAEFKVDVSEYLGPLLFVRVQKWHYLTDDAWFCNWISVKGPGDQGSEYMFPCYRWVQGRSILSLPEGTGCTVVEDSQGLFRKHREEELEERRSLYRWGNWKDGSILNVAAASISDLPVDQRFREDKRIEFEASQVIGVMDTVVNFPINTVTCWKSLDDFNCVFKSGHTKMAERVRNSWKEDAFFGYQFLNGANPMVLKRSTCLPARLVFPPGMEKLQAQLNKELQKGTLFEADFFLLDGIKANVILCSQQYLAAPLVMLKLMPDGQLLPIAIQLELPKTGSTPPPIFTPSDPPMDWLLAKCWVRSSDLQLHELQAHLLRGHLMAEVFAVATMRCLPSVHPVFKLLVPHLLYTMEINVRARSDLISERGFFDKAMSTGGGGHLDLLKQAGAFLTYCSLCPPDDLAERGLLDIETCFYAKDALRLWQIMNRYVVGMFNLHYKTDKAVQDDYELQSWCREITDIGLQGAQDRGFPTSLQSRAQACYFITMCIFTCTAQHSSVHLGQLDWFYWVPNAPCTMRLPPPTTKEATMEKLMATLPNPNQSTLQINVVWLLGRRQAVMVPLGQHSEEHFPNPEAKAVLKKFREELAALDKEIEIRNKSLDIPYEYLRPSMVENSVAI
Chain of Arachidonate 12-lipoxygenase (Rattus norvegicus) (Q02759 whole entry): as above

Work on `O=C(Nc1ccc(F)cn1)c1cn[nH]n1` yielded an IC50 [1] of 3.11 µM and an IC50 [2] of 3.97 µM.

For `O=C(Nc1ccc(F)cc1Cl)c1cc([N+](=O)[O-])[nH]n1`, the IC50 [1] was 3.29 µM and the IC50 [3] was “Not Active”.

In the case of `O=C(Nc1cccnc1)c1ccn[nH]1`, the IC50 [4] is reported as “Not Active”.

In the case of `Cc1c(C(=O)Nc2ccc(F)cc2Cl)n[nH]c1[Si](C)(C)C`, the IC50 [1] is reported as 1.33 µM and the IC50 [2] is reported as 0.672 µM.

In the case of `CS(=O)(=O)Nc1cc(C(=O)Nc2ccc(F)cc2Cl)n[nH]1`, the IC50 [4] is reported as “Not Active”.

`O=C(Nc1ccc(F)cc1)c1cc[nH]n1` gave an IC50 [1] of 0.27 µM.

For `CS(=O)(=O)Nc1c[nH]nc1C(=O)Nc1ccc(F)cc1Cl`, the IC50 [4] was “Not Active”.

For `O=C(Nc1ccc(Cl)cc1Cl)c1cn[nH]n1`, the “inhibition (INH)” value (Cytochrome P450 2C8 [5]) was “Not Active”, the inhibition [6] was 10% and the microsomal CLint [7] was less than 1 µL/min/mg. The IC50 [8] was “Not Active”, the IC50 (Cytochrome P450 2C19) was 1.4 µM and the half-life [9] was greater than 1.67 h. It also gave an inhibition at 10 µM (CYP2E1) of 10%, an inhibition [10] of less than 50% and an IC50 (Cytochrome P450 2C9) of 0.5 µM. The inhibition [11] was 42%, the solubility [12] was greater than 0.287 mg/mL and the IC50 (Cytochrome P450 2C8 [13]) was “Not Active”. It also gave a solubility [14] of 0.0836 mg/mL (≈ 325 µM), an Imax [15] of 79% and an IC50 [16] of 24 µM. For the same compound, the IC50 (Cytochrome P450 1A2) was 21.6 µM, the IC50 [17] was 0.078 µM and the Activity (Escherichia coli) was “Non-toxic”. It also gave an IC50 [18] of 2.4 µM, an inhibition [19] of 4% and an IC50 (Cytochrome P450 2D6) greater than 100 µM. The solubility [20] was 0.0243 mg/mL (≈ 94.5 µM), the “inhibition (INH)” value [21] was “Not Active” and the fraction unbound [22] was less than 0.01. The permeability (Caco-2) was “permeable”, the inhibition at 10 µM (CYP2B6) was 93% and the IC50 (Cytochrome P450 3A4) was 58.1 µM.

Compound `O=C(Nc1ccccn1)c1cc[nH]n1` has an IC50 [1] of 3.41 µM and an IC50 [2] of 1.21 µM.

In the case of `O=C(Nc1ccc(F)cc1Cl)c1n[nH]cc1-c1ccccc1`, the IC50 [4] is reported as “Not Active”.

For `CN(C(=O)c1cc[nH]n1)c1ccccc1Cl`, the IC50 [4] was “Not Active” and the IC50 [3] was “Not Active”.
